Reference: patent US20120065165A1, “COMPOSITIONS AND METHODS OF TREATING ENDOTHELIAL DISORDERS” (ARGINETIX, INC, priority 2008, published 2012)

What was measured:
rat aortic tissues = assay: cGMP levels in aortic rings of old rats incubated with sildenafil and ABH (cGMP EIA); format: cell-based; conditions: sildenafil 0 nM
Procedure: The source of tissue was old (22 to 24 months) male Fischer 344 rats purchased from National Institute for Aging (NIA). The rats were anesthetized in an isoflurane chamber and euthanized. The entire length of the aorta (thoracic, arch, abdominal) were dissected out and cleaned free of connective tissue. These aorta were then sectioned into ˜3 mm long rings. Samples were collected from 2 rats and pooled. […] Rings were incubated in varying concentrations of sildenafil (0-2000 nM) and ABH (0-500 nM) prepared in 200 μL Krebs buffer for 10 min at 37° C. The rings were then snap frozen in liquid nitrogen following treatment. The next day, samples were homogenized in 200 μL 6% TCA buffer (prepared by adding TCA to DI water) at 4° C. for extraction of cyclic nucleotides. The samples were then centrifuged at 12,000 rpm for 5 min at 4° C. Protein pellets were re-dissolved in PBS to determine protein concentration, and supernatant was reserved for cGMP detection. […] ABH (MW 211.45): A stock solution of ABH at a concentration of 100 mM was prepared by dissolving 21.1 mg of ABH into 1 ml Krebs solution. This was used to prepare 5 ml of a 1 mM stock. 200 μL of the 1 mM solution were dispensed into column 12 of a 96-well plate. Six 2× dilutions were prepared in the plate. 200 μL Krebs were dispensed in column 5 to get a concentration range of 0-1000 nM (2× of final concentration). Sildenafil (MW 474.5): A stock solution of sildenafil at a concentartion of 100 mM was prepared by dissolving 47.4 mg of sildenafil into 1 ml Krebs solution; 5 ml of 2 mM stock was prepared from this. Row A received 200 μL of Krebs buffer (0 mM sildenafil), mixed well, and adjusted to a final volume of 200 μL. Next, 200 μL of the 2 mM sildenafil stock was dispensed into row H of the 96 well plate already containing the ABH dilutions ([…]). Six 2× dilutions were prepared from this to get the final concentration ranges for the two drugs. cGMP levels were determined with a cGMP kit (Amersham cGMP Enzyme immunoassay Biotrak (EIA) System Cat #RPN226) and run in accordance with the manufacture's recommendations. The assay uses a competitive fluorescent immunoassay format to measure levels of cGMP. It combines the use of a peroxidase-labelled cGMP conjugate, a specific antiserum which can be immobilized on to pre-coated microplates, and a one-pot stabilized substrate solution. […] In the absence of cGMP most of the HRP conjugate is bound to the antibody and yields a high fluorescence. Increasing concentrations of cGMP competitively decreases the binding of the HRP conjugate, decreasing the measured fluorescence (HRP activity). […] The plate was then incubated for 2 hrs at room temperature with shaking after which it is washed and the fluorescent substrate is added. The plate was incubated for an additional 10 min and then read on a Molecular Devices Gemini EM plate reader set at Ex 530 nm, Em 590 nm (endpoint mode). The signal is reported to be stable for up to 24 hrs, but was generally read within 2 hrs. […] These values were calculated based on the resultant ratio of fluorescence reading of sample divided by fluorescense reading with no cGMP (pmols/mg). For each concentration combination of sildenafil and ABH administered to cells, absorbance (OD at 450 nm) was measured. From these values, the absorbance adjusted for non-specific binding (NSB) for each sample (OD-NSB(B)) was determined from the absorbance (B) divided by the absorbance without cGMP (Bo). Using this value and the standard curve for cGMP, the log (fmol) is found and, after adjusting for the quantity of protein, the pmols of cGMP/mg protein is calculated.

diabetic ZDF rats = assay: Oral ABH in type 2 diabetic ZDF rats: vascular and erectile function (Example 7); format: in vivo, rat
Excerpt: The effects of ABH in the ZDF rat model of type 2 diabetes after systemic in vivo administration is investigated as described below. […] Given the similarities in indicators of vascular dysfunction between aged rats and diabetic animals and humans with respect to elevated arginase and decreased NO the prediction is that orally-administered ABH will result in similar improvements in vascular and erectile function in the type 2 diabetic ZDF rats. […] ABH is hypothesized to inhibit pathologically elevated vascular arginase, restore normal eNOS coupling, and enhance both erectile and vascular endothelial function. […]
ZDF rats are made diabetic by feeding a high-fat diet, while a cohort of ZLC rats are fed a normal diet. […] Aortic PWV is calculated as the separation distance divided by the difference in arrival times of the rat's pulse, with respect to the R-peak of the electrocardiogram (ECG), reported in meters per second (m/s).
At the end of the 4 week treatment period, erectile function is determined in vivo. […] Erectile response to electrical field stimulation (neurogenic response) is measured by catheterizing the right crus, and connecting it to a pressure transducer to permit continuous measurement of intracavernosal pressure (ICP). […] The erectile response (ICP) to injections of […] is determined. ICP is monitored during ACh administration, and until it returns to baseline. […]

Structure (SMILES): N[C@@H](CCCCB(O)O)C(=O)O [ABH, 2(S)-Amino-6-boronohexanoic acid]
- Theoretical response T(x,y) based on an additive effect (rat aortic tissues; ABH 7.81 nM): 0.34 pmol/mg
- pmols of cGMP/mg protein produced P(x,y) (rat aortic tissues; ABH 7.81 nM): 0.34 pmols/mg
- Theoretical response T(x,y) based on an additive effect (rat aortic tissues; ABH 31.25 nM): 0.90 pmol/mg
- pmols of cGMP/mg protein produced P(x,y) (rat aortic tissues; ABH 31.25 nM): 0.90 pmols/mg
- Theoretical response T(x,y) based on an additive effect (rat aortic tissues; ABH 125 nM): 1.14 pmol/mg
- pmols of cGMP/mg protein produced P(x,y) (rat aortic tissues; ABH 125 nM): 1.14 pmols/mg
- Theoretical response T(x,y) based on an additive effect (rat aortic tissues; ABH 500 nM): 0.16 pmol/mg
- pmols of cGMP/mg protein produced P(x,y) (rat aortic tissues; ABH 500 nM): 0.16 pmols/mg
- vascular arginase activity and vascular ROS concentration (diabetic ZDF rats; ABH orally four weeks, vs untreated diabetic ZDF rats): significant decreases
- in vivo erectile function, pulse wave velocity and ex vivo vasorelaxation (diabetic ZDF rats; ABH orally in drinking water four weeks, vs untreated ZDF rats): significant improvements
